The values below are quoted from earlier work in US8143297B2, “Heterocyclic derivatives as modulators of ion channels” (Vertex Pharmaceuticals Incorporated, priority 2008, dated 2012).

SMILES strings stand for the structures.

What all share (conditions): read-out: TTX IC50
In series [1] the target is NaV1.9 (Homo sapiens, UniProt Q9UI33).
The target in series [2] is NaV1.2 (Homo sapiens, UniProt Q99250).
In series [3] the target is NaV1.3 (Homo sapiens, UniProt Q9NY46).
The target in series [4] is NaV1.6 (Homo sapiens, UniProt Q9UQD0).
In series [5] the target is NaV1.1 (Homo sapiens, UniProt P35498).
Series [6] addresses NaV1.8 (Homo sapiens, UniProt Q9Y5Y9).

NaV1.3, sequence (Q9NY46 whole entry, looked up): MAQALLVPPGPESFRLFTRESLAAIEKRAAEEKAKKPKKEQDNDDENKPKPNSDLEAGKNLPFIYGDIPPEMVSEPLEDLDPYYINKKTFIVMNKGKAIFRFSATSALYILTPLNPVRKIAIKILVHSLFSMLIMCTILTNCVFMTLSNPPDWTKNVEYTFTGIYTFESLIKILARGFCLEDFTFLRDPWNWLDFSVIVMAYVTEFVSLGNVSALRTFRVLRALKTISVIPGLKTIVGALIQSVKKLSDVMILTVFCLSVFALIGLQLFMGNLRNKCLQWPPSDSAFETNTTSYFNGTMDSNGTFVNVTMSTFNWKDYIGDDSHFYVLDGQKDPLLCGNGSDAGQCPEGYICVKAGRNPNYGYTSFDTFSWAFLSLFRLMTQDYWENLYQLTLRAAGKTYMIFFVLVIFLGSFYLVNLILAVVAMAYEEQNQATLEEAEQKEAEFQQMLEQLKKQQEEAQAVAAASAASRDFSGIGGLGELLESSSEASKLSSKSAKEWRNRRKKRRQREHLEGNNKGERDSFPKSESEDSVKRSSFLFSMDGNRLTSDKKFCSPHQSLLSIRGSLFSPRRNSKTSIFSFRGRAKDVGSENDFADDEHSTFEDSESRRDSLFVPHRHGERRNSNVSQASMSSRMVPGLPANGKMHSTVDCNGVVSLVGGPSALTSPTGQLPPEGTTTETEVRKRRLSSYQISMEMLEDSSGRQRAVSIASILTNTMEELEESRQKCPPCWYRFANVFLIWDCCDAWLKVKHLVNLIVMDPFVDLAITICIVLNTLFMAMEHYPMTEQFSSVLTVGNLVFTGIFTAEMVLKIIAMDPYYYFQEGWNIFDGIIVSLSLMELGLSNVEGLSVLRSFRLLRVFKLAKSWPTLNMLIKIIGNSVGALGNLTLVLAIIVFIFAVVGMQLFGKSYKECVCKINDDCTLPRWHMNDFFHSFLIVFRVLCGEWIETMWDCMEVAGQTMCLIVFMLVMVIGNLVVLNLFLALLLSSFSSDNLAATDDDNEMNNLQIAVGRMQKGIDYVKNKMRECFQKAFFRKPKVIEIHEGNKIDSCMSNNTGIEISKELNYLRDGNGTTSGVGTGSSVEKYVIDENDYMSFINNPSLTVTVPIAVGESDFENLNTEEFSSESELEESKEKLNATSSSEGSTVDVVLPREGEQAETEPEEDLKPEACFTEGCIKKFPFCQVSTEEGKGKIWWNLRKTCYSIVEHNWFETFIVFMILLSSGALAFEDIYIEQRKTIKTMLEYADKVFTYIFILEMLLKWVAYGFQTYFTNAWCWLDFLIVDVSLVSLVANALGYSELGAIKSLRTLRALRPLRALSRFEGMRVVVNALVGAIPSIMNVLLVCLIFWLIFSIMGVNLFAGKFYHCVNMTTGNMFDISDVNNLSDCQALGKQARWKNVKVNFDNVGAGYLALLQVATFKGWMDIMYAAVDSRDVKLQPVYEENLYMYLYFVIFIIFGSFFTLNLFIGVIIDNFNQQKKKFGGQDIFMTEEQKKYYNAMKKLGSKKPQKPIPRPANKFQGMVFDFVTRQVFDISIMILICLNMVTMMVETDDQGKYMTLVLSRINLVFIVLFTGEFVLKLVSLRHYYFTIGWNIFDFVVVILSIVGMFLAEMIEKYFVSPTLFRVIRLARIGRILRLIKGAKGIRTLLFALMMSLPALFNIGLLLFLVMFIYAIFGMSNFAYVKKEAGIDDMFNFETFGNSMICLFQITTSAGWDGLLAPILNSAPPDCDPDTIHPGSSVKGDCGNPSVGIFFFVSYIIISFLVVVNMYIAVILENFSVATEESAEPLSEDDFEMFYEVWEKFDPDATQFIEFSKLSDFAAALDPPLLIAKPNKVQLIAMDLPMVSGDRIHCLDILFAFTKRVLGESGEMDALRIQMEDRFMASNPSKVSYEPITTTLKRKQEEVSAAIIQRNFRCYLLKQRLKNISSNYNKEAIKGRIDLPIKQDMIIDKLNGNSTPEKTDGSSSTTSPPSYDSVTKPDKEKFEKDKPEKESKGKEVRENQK
NaV1.8, sequence (Q9Y5Y9 whole entry, looked up): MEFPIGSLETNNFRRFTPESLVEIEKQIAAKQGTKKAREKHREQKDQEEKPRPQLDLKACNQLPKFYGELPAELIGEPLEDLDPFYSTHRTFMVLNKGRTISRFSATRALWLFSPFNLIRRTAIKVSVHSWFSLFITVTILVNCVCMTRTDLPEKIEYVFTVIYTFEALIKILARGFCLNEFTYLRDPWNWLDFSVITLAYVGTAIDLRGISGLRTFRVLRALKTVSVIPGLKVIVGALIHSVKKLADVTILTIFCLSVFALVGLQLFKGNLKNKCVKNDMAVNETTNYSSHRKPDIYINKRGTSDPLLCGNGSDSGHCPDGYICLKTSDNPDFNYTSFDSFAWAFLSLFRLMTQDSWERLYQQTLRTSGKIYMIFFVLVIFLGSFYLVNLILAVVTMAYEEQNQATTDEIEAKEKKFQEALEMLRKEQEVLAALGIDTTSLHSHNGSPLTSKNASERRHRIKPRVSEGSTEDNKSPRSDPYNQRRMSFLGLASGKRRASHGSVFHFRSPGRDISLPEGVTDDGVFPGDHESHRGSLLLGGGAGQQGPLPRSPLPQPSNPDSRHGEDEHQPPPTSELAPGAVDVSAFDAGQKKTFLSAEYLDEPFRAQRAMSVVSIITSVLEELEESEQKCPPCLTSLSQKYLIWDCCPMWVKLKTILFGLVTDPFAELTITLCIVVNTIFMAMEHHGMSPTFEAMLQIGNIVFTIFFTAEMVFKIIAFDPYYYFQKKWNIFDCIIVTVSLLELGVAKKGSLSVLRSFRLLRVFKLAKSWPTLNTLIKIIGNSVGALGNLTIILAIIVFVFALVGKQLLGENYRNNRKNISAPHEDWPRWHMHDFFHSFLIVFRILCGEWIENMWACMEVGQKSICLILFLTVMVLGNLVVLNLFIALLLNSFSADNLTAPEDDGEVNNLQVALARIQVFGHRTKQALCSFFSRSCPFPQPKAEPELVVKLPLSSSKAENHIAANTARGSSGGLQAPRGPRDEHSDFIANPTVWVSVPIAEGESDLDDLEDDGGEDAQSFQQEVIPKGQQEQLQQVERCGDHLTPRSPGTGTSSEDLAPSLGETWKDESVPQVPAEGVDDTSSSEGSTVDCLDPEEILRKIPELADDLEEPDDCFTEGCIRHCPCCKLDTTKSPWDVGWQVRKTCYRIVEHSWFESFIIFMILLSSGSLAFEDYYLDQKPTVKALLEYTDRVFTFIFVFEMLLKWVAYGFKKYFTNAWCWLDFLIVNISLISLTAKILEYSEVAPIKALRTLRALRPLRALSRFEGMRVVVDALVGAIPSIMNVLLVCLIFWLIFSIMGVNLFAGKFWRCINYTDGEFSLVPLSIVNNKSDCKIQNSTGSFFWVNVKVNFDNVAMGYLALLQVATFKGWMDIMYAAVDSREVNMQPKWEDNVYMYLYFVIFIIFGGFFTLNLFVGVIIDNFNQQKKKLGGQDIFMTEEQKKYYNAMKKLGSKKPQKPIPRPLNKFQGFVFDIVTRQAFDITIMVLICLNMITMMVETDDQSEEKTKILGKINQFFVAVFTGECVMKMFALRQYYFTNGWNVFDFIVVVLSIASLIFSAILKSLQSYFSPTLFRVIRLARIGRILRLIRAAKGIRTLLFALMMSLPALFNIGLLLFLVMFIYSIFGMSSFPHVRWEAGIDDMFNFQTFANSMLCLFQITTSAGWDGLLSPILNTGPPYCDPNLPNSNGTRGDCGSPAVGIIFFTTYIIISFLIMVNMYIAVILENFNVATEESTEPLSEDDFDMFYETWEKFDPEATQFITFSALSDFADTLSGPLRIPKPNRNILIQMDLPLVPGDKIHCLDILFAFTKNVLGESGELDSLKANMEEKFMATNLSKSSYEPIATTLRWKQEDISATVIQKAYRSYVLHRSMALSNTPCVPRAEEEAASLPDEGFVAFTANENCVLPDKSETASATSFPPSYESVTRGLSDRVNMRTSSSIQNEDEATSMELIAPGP

Turning to `NC1=N[C@H](O)[C@H]2[C@H]3O[C@]4(O)O[C@@H]([C@@H](O)[C@@]2(N1)[C@@H]4O)[C@]3(O)CO` [TTX, tetrodotoxin], the IC50 in series [1] is 1000 nM; in series [2] it was 10 nM; in series [3], 15 nM; in series [4], 6 nM; in series [5] it was 10 nM; in series [6], over 50000 nM.
